Experiments:
Assay type in all cases: cell-based, human
[1] = system: C9-C4; assay: Gene expression analysis using GeneChip in E7070-resistant strain C9-C4; details: resistant strain C9-C4, 8 μM, 12 hours
Protocol: The fragmented cRNA was hybridized with GeneChip Hu6800 (Affymetrix) in 100 mM MES, 1 M sodium salt, 20 mM EDTA and 0.01% Tween 20 at 45° C. for 16 hours. After the hybridization, the GeneChip was washed and stained according to the protocol EukGE-WS2 attached to Affymetrix Fluidics Station. For the staining, streptavidin-phycoerythrin and biotinylated goat anti-streptavidin antibody were used. The stained GeneChip was scanned by using HP Argon Ion Laser Confocal Scanner (Hewlett Packard) to measure its fluorescence intensity. The fluorescence was measured at 570 nm by using an excitation light at 488 nm. The quantitative data analyses were all conducted by using GeneChip Software (Affymetrix). To quantify RNA, an average of “differences [(Perfect match hybridization signal)−(Mismatch signal)]” was obtained for each probe family. […] Two kinds of E7070-resistant strains (C9-C1 and another resistant strain (C9-C4) obtained in the same method as C9-C1) were treated with 8 μM of E7070 for 12 hours in the same manner as described above, and variations of the gene expression were analyzed by using GeneChip for the genes listed in Tables 1 and 2.

[2] = system: HCT116-C9; assay: Gene expression analysis by quantitative PCR; details: susceptible strain HCT116-C9, 8 μM, 0-12 hours, FIG. 2
Protocol: (§1) E7070, or ER-35748 or ER-68487 represented by the structural formula shown below was added to the media of an E7070-susceptible strain HCT116-C9 and an E7070-resistant strain HCT116-C9-C1 at a concentration of 8 μM and the cells were cultured. Then, cells were recovered after 0, 3, 6 and 12 hours. Further, the cells were also cultured for 12 hours without adding the drug and recovered. In order to confirm that variations in gene expression obtained in Example 2 reflected the susceptibility of a tumor cell to E7070, changes of gene expression in E7070-susceptible cells and E7070-resistant cells were examined by quantitative PCR using RNA shown in Example 1, SYBR Green and ABI Prism 7700 Sequence Detection System (Perkin-Elmer Applied Biosystems). The operation was performed in two steps of a reverse transcription reaction and PCR reaction. […] The mRNA level in each specimen was quantified by measuring fluorescence intensity. In comparison of two or more specimens, quantitative values were corrected based on the mRNA level of GAPDH in each specimen. The relationships between the drug treatment time and each mRNA level are shown in FIGS. 2 to 5, where the quantified value at 0 hour after the drug treatment was used as a control (100%).

[3] = system: HCT116-C9-C1; assay: Gene expression analysis by quantitative PCR; details: resistant strain HCT116-C9-C1, 8 μM, 0-12 hours, FIG. 4
Protocol: as §1

[4] = system: HCT116-C9; assay: Cell growth inhibition by the MTT method; details: HCT116-C9, 72 hours culture, FIG. 1
Protocol: (§2) The used cell strains HCT116-C9, HCT116-C9-C1, LX-1 and LX-1-E2 were cultured for 72 hours with addition of E7070. The actual operation was performed by using CellTiter 96 Non-Radioactive Cell Proliferation Assay (Promega, Madison, Wis.) according to the attached operation manual.

[5] = system: LX-1-E2; assay: Cell growth inhibition by the MTT method; details: resistant strain LX-1-E2, drug concentration 8 μM, 72 hours culture
Protocol: as §2

With `NS(=O)(=O)c1ccc(S(=O)(=O)Nc2cccc3c(Cl)c[nH]c23)cc1` [E7070, N-(3-chloro-7-indolyl)-1,4-benzenedisulfonamide] the “variations of the gene expression for the genes listed in Tables 1 and 2” value [1] was “no gene that increased or decreased 1.8 times or more was observed”, the “mRNA level variation of S80343, U07919, U11791, M95809, U18291, U63743, M61764 (corrected by GAPDH)” value [2] was “largest expression variation” and the “mRNA level variation of S80343, U07919, U11791, M95809, U18291, U63743, M61764 (corrected by GAPDH)” value [3] was “no expression variation was observed”. For the same molecule, the “susceptibility (cell growth inhibition)” value [4] was “highest susceptibility” and the growth inhibitory effect [5] was “some growth inhibitory effect”.

Reference: patent US7445892B2, “Method of testing anticancer agent-sensitivity of tumor cells” (Eisai Co., Ltd., priority 2000, dated 2008)
